# Test results taken from patent US12503452B2 (Curza Global, LLC, priority 2019, dated 2025).
# Counter-ions that a name gives are not always drawn. Like-named read-outs stand apart in the source and are kept apart here.
# How the values were obtained:
# [1] = system: E. coli S30 extract (bacterial protein synthesis); test: E. coli S30 extract coupled transcription-translation luciferase assay (inhibition of bacterial protein synthesis); format: biochemical; conditions: read-out: S30 IC50 (μM/% inhib.)
# How it was run: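 Cell-free coupled transcription-translation in E. coli S30 circular-DNA extract, with pBESTluc plasmid as template and complete amino acid mix. Eight 2-fold compound dilutions were incubated with the extract 1 h at 37 °C, chilled, then luciferase luminescence was read. % inhibition was taken relative to no-inhibitor wells; no-DNA wells gave background.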
# [2] = target: Rabbit Reticulocyte Lysate (eukaryotic protein synthesis); test: Rabbit reticulocyte lysate luciferase assay (inhibition of eukaryotic protein synthesis); format: biochemical; conditions: read-out: Rabbit reticulocyte IC50 (μM/% inhib.)
# How it was run: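 Nuclease-treated rabbit reticulocyte lysate translating luciferase control RNA, with complete amino acids, was incubated at 30° C. for 90 minutes with 2-fold serial compound dilutions. Luminescence was measured after adding luciferase reagent. % inhibition was relative to water controls, with no-RNA wells as background.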
# A. baumannii (Ab) = test: Broth microdilution minimum inhibitory concentration (MIC); format: cell-based; conditions: for MIC: Acinetobacter baumannii, read-out: Ab + bicarb MIC
# How it was run: (§1)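 CLSI broth microdilution with 8 two-fold compound dilutions in CAMHB, or CAMHB plus sodium bicarbonate (6.25 or 25 mM final) or heat-inactivated human serum (0–50%). Inoculum 5×10^4 CFU/well from 0.5 McFarland cultures grown at 35±2° C; tested in triplicate.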
# E. coli (Ec) = test: as above; format: cell-based; conditions: for MIC: Escherichia coli, read-out: E. coli + bicarb MIC
# How it was run: as §1
# E. faecalis (Ef) = test: as above; format: cell-based; conditions: for MIC: Enterococcus faecalis, read-out: Ef + bicarb MIC
# How it was run: as §1
# P. aeruginosa (Pa) = test: as above; format: cell-based; conditions: for MIC: Pseudomonas aeruginosa, read-out: Pa MIC + bicarb
# How it was run: as §1
# S. aureus (Sa) = test: as above; format: cell-based; conditions: for MIC: Staphylococcus aureus, read-out: Sa + bicarb MIC
# How it was run: as §1
# [3] = class by IC50 or % inhibition @ 1 μM
# [4] = A. baumannii, growth medium with sodium bicarbonate
# [5] = E. coli, growth medium with sodium bicarbonate
# [6] = E. faecalis, growth medium with sodium bicarbonate
# [7] = P. aeruginosa, growth medium with sodium bicarbonate
# [8] = S. aureus, growth medium with sodium bicarbonate
Structure (SMILES),"IC50 [1, 3]","IC50 [2, 3]",MIC (A. baumannii (Ab)),MIC (E. coli (Ec)),MIC (E. faecalis (Ef)),MIC (P. aeruginosa (Pa)),MIC (S. aureus (Sa)),IC50 ([1]; % inhibition @ 1 μM),IC50 ([2]; % inhibition @ 1 μM),MIC (A. baumannii (Ab); [4]),MIC (E. coli (Ec); [5]),MIC (E. faecalis (Ef); [6]),MIC (P. aeruginosa (Pa); [7]),MIC (S. aureus (Sa); [8]),Ab + bicarb MIC (A. baumannii (Ab); [4]),E. coli + bicarb MIC (E. coli (Ec); [5]),Ef + bicarb MIC (E. faecalis (Ef); [6]),Pa MIC + bicarb (P. aeruginosa (Pa); [7]),Sa + bicarb MIC (S. aureus (Sa); [8])
"CN(Cc1ccc(-n2ccc(NC(=O)N3CCN(C(=O)C(C)(C)N)CC3)nc2=O)cc1)C1CC(N)CC(O)C1 (centres unmarked) [Compound 343, hydrochloride salt]",0.5 to 1 µM,> 1 µM,> 32 µg/mL,8 to 32 µg/mL,> 32 µg/mL,> 32 µg/mL,> 32 µg/mL,–,–,–,–,–,–,–,–,–,–,–,–
"CC(C)(N)C(=O)N1CCN(C(=O)Nc2ccn(-c3ccc(CN4CC[C@H](N)[C@@H](F)C4)cc3)c(=O)n2)CC1 [Compound 344, hydrochloride salt]",> 1 µM,> 1 µM,> 32 µg/mL,> 32 µg/mL,> 32 µg/mL,> 32 µg/mL,> 32 µg/mL,–,–,–,–,–,–,–,–,–,–,–,–
"CC(C)(N)C(=O)N1CCN(C(=O)Nc2ccn(-c3ccc(CCNCC4CNC4)cc3)c(=O)n2)CC1 [Compound 345, hydrochloride salt]",0.5 to 1 µM,> 1 µM,> 32 µg/mL,> 32 µg/mL,> 32 µg/mL,> 32 µg/mL,> 32 µg/mL,–,–,–,–,–,–,–,–,–,–,–,–
"CC(Cc1ccc(-n2ccc(NC(=O)N3CCN(C(=O)C(C)(C)N)CC3)nc2=O)cc1)N1CC(CCN)C1 (centres unmarked) [Compound 347, hydrochloride salt]",0.5 to 1 µM,> 1 µM,> 32 µg/mL,< 8 µg/mL,> 32 µg/mL,> 32 µg/mL,8 to 32 µg/mL,–,–,–,–,–,–,–,–,–,–,–,–
"CC(C)(N)C(=O)N1CCN(C(=O)Nc2ccn(-c3ccc(CN(C4CC4)[C@H]4CC[C@H](N)CC4)cc3)c(=O)n2)CC1 [Compound 348, hydrochloride salt]",–,–,> 32 µg/mL,< 8 µg/mL,> 32 µg/mL,> 32 µg/mL,8 to 32 µg/mL,< 0.5 µM,> 1 µM,–,–,–,–,–,–,–,–,–,–
"CC(C)(N)C(=O)N1CCN(C(=O)Nc2ccn(-c3ccc(C4CO[C@@H](CN)CN4)cc3)c(=O)n2)CC1 (some centres unmarked) [Compound 352, hydrochloride salt]",–,–,> 32 µg/mL,8 to 32 µg/mL,> 32 µg/mL,> 32 µg/mL,> 32 µg/mL,< 0.5 µM,> 1 µM,–,–,–,–,–,–,–,–,–,–
"CC(C)(N)C(=O)N1CCN(C(=O)Nc2ccn(-c3cc(F)c(CN[C@H]4CC[C@H](N)CC4)c(F)c3)c(=O)n2)CC1 [Compound 353, hydrochloride salt]",–,–,> 32 µg/mL,< 8 µg/mL,> 32 µg/mL,> 32 µg/mL,8 to 32 µg/mL,< 0.5 µM,> 1 µM,–,–,–,–,–,–,–,–,–,–
CCN(Cc1ccc(-n2ccc(NC(=O)N3CCN(C(=O)C(C)(C)N)CC3)nc2=O)cc1F)[C@H]1CC[C@H](N)CC1 [Compound 355],–,–,> 32 µg/mL,< 8 µg/mL,< 8 µg/mL,> 32 µg/mL,< 8 µg/mL,< 0.5 µM,> 1 µM,–,–,–,–,–,–,–,–,–,–
CC(C)N(Cc1ccc(-n2ccc(NC(=O)N3CCN(C(=O)C(C)(C)N)CC3)nc2=O)cc1)C1CCC(N)CC1 (centres unmarked) [Compound 356],–,–,–,–,–,–,–,> 1 µM,> 1 µM,> 32 µg/mL,> 32 µg/mL,> 32 µg/mL,> 32 µg/mL,> 32 µg/mL,–,–,–,–,–
CCN(Cc1ccc(-n2ccc(NC(=O)N3CCN(C(=O)[C@H](C)N)CC3)nc2=O)cc1)C1CCC(N)CC1 (some centres unmarked) [Compound 357],–,–,–,–,–,–,–,< 0.5 µM,> 1 µM,> 32 µg/mL,< 8 µg/mL,8 to 32 µg/mL,> 32 µg/mL,< 8 µg/mL,–,–,–,–,–
CCN(Cc1ccc(-n2ccc(NC(=O)N3CCN(C(=O)[C@@H](C)N)CC3)nc2=O)cc1)C1CCC(N)CC1 (some centres unmarked) [Compound 358],–,–,–,–,–,–,–,0.5 to 1 µM,> 1 µM,> 32 µg/mL,< 8 µg/mL,8 to 32 µg/mL,> 32 µg/mL,< 8 µg/mL,–,–,–,–,–
CCN(Cc1ccc(-n2ccc(NC(=O)N3CCN(C(=O)[C@@H](C)NC(=O)[C@@H](C)N)CC3)nc2=O)cc1)C1CCC(N)CC1 (some centres unmarked) [Compound 359],–,–,–,–,–,–,–,> 1 µM,> 1 µM,> 32 µg/mL,> 32 µg/mL,> 32 µg/mL,> 32 µg/mL,8 to 32 µg/mL,–,–,–,–,–
"CC(C)(N)C(=O)N1CCN(C(=O)Nc2ccn(-c3ccc(CN4CCCC(N)CC4)cc3)c(=O)n2)CC1 (centres unmarked) [Compound 365, hydrochloride salt]",–,–,> 32 µg/mL,< 8 µg/mL,< 8 µg/mL,> 32 µg/mL,< 8 µg/mL,< 0.5 µM,> 1 µM,–,–,–,–,–,–,–,–,–,–
"CC(C)(N)C(=O)N1CCN(C(=O)Nc2ccn(-c3ccc(CN4CCC(C5CNC5)CC4)cc3)c(=O)n2)CC1 [Compound 370, hydrochloride salt]",–,–,> 32 µg/mL,< 8 µg/mL,< 8 µg/mL,> 32 µg/mL,< 8 µg/mL,< 0.5 µM,> 1 µM,–,–,–,–,–,–,–,–,–,–
CC(C)(N)C(=O)N1CCN(C(=O)Nc2ccn(-c3ccc(CCN4CC(C5CCNCC5)C4)cc3)c(=O)n2)CC1 [Compound 372],–,–,–,–,–,–,–,> 1 µM,> 1 µM,> 32 µg/mL,< 8 µg/mL,> 32 µg/mL,> 32 µg/mL,< 8 µg/mL,–,–,–,–,–
CC(C)(N)C(=O)N1CCN(C(=O)Nc2ccn(-c3ccc(CC4(N5CCC(N)CC5)CC4)cc3)c(=O)n2)CC1 [Compound 373],–,–,–,–,–,–,–,> 1 µM,> 1 µM,> 32 µg/mL,< 8 µg/mL,8 to 32 µg/mL,> 32 µg/mL,< 8 µg/mL,–,–,–,–,–
CC(C)(N)C(=O)N1CCN(C(=O)Nc2ccn(-c3ccc(CNCC4CNC4)cc3)c(=O)n2)CC1 [Compound 374],–,–,–,–,–,–,–,< 0.5 µM,> 1 µM,–,< 8 µg/mL,8 to 32 µg/mL,> 32 µg/mL,8 to 32 µg/mL,+ (An MIC value (μg/mL) that is 32 μg/mL or greater),–,–,–,–
CC(C)(N)C(=O)N1CCN(C(=O)Nc2ccn(-c3ccc(CN4CC(C5CCNCC5)C4)cc3)c(=O)n2)CC1 [Compound 377],–,–,–,–,–,–,–,< 0.5 µM,> 1 µM,> 32 µg/mL,< 8 µg/mL,> 32 µg/mL,> 32 µg/mL,< 8 µg/mL,–,–,–,–,–
CC(Cc1ccc(-n2ccc(NC(=O)N3CCN(C(=O)C(C)(C)N)CC3)nc2=O)cc1)N1CC[C@H](CN)C1 (some centres unmarked) [Compound 378],–,–,–,–,–,–,–,< 0.5 µM,> 1 µM,–,–,–,–,–,+ (An MIC value (μg/mL) that is 32 μg/mL or greater),+++ (An MIC value (μg/mL) that is less than 8 μg/mL),++ (An MIC value (μg/mL) that is 8 μg/mL or greater and less than 32 μg/mL),+ (An MIC value (μg/mL) that is 32 μg/mL or greater),+++ (An MIC value (μg/mL) that is less than 8 μg/mL)
CC(Cc1ccc(-n2ccc(NC(=O)N3CCN(C(=O)C(C)(C)N)CC3)nc2=O)cc1)N1CCC(C2CNC2)CC1 (centres unmarked) [Compound 379],–,–,–,–,–,–,–,> 1 µM,> 1 µM,> 32 µg/mL,< 8 µg/mL,> 32 µg/mL,> 32 µg/mL,< 8 µg/mL,–,–,–,–,–
